Test results taken from patent publication US20230234943A1, “TREX1 INHIBITORS AND USES THEREOF” (Tempest Therapeutics, Inc., priority 2020, published 2023).

Target: T1, Human TREX1 enzyme (amino acids 1-242) (Homo sapiens, UniProt Q9NSU2)
T1 construct: Human TREX1 enzyme (amino acids 1-242)
T1 sequence (Q9NSU2 1-242): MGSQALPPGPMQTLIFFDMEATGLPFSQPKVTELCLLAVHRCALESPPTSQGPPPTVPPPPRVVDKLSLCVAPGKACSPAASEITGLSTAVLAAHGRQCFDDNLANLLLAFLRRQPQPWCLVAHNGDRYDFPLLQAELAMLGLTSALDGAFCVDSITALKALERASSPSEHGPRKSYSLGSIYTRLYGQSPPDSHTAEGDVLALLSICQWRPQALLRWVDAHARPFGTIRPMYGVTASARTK
Assay: Human TREX1 enzymatic assay with dsDNA native oligonucleotide (Picogreen fluorescence)
Format: biochemical
Conditions: 2 mM dithiothreitol in assay buffer; 50 nM dsDNA oligonucleotide; 30 min preincubation at 25° C.; read-out: TREX1/Human + DTT IC50 AVG
Method: Example A. Human TREX1 Enzymatic Assay with dsDNA Native Oligonucleotide
Human TREX1 enzyme (amino acids 1-242) was diluted in assay buffer (20 mM Tris pH 7.7, 5 mM MgCl2, 0.01% human serum albumin, 0.01% Brij™-35, 2 mM dithiothreitol) to a final concentration of 0.8 nM to 0.16 nM and added to a 96-well low-binding polypropylene plate. Test compounds were diluted in DMSO to 50× concentration (final DMSO concentration in reaction mixture of 2%) and added to the wells with a concentration ranging from 300 μM to 13 nM or 30 μM to 1.5 nM. The reaction mixtures were incubated for 30 minutes at 25° C. and a solution of annealed dsDNA oligonucleotide (5′-[…]-3′ and Comp: 5′-[…]-3′) was added to a final concentration of 50 nM. The reaction mixtures were incubated at 25° C. for 5-15 minutes and subsequently quenched by transferring part of the assay reaction to a solution of 100 mM ethylenediaminetetraacetic acid and 1:100 Picogreen™ (final concentration of […]) in a black plate with an opaque bottom. The fluorescence ([…]) was measured using a Molecular Devices SpectraMax plate reader. Wells containing oligonucleotide but no TREX1 enzyme were used as negative controls. Wells containing oligonucleotide, TREX1 enzyme, and DMSO were used as positive controls.

Row | SMILES | IC50 [µM]
1 | COc1cc(-c2nc3ccccc3n2C2COC2)c(C)c(O)c1O [Example 1, 6-methoxy-3-methyl-4-(1-(oxetan-3-yl)-1H-benzo[d]imidazol-2-yl)benzene-1,2-diol] | 10 to 100
2 | O=C(O)c1ccc(-c2nc3ccncc3[nH]2)cc1O [Example 2, 2-hydroxy-4-(3H-imidazo[4,5-c]pyridin-2-yl)benzoic acid] | 10 to 100
3 | O=C(O)c1cc(-c2nc3ccccc3n2C2COC2)ccc1O [Example 3, 2-hydroxy-5-(1-(oxetan-3-yl)-1H-benzo[d]imidazol-2-yl)benzoic acid] | > 100
4 | COc1cc(-c2nc3cc(N4CCC4)ccc3[nH]2)cc(O)c1O [Example 4, 5-(5-(azetidin-1-yl)-1H-benzo[d]imidazol-2-yl)-3-methoxybenzene-1,2-diol] | 1 to 10
5 | COc1cc(-c2nc3ccncc3[nH]2)cc(C(=O)O)c1O [Example 5, 2-hydroxy-5-(3H-imidazo[4,5-c]pyridin-2-yl)-3-methoxybenzoic acid] | 1 to 10
6 | COc1cc(-c2nc3cc(N4CCC4)ccc3[nH]2)cc(C(=O)O)c1O [Example 6, 5-[6-(azetidin-1-yl)-1H-benzimidazol-2-yl]-2-hydroxy-3-methoxybenzoic acid] | 1 to 10
7 | COc1cc(-c2nc3ccccc3[nH]2)cc(O)c1O [Example 9, 5-(1H-benzo[d]imidazol-2-yl)-3-methoxybenzene-1,2-diol] | > 100
8 | COc1cc(-c2nc3ccccc3n2C)cc(O)c1O [Example 10, 3-methoxy-5-(1-methyl-1H-benzo[d]imidazol-2-yl)benzene-1,2-diol] | > 100
9 | COc1cc(-c2nc3ccccc3n2C2COC2)cc(O)c1O [Example 11, 3-methoxy-5-(1-(oxetan-3-yl)-1H-benzo[d]imidazol-2-yl)benzene-1,2-diol] | 10 to 100
10 | COc1cc(-c2nc3ccncc3[nH]2)cc(O)c1O [Example 12, 5-(3H-imidazo[4,5-c]pyridin-2-yl)-3-methoxybenzene-1,2-diol] | 10 to 100
11 | COc1cc(-c2nc3ccccc3n2C2CCOC2)cc(O)c1O (stereo not shown) [Example 13, 3-methoxy-5-(1-(tetrahydrofuran-3-yl)-1H-benzo[d]imidazol-2-yl)benzene-1,2-diol] | 10 to 100
12 | COc1cc(-c2nc3cnncc3[nH]2)cc(O)c1O [Example 14, 5-(1H-imidazo[4,5-d]pyridazin-2-yl)-3-methoxybenzene-1,2-diol] | > 100
13 | COCCn1c(-c2cc(O)c(O)c(OC)c2)nc2ccccc21 [Example 15, 3-methoxy-5-(1-(2-methoxyethyl)-1H-benzo[d]imidazol-2-yl)benzene-1,2-diol] | > 100
14 | COc1c(C)c(-c2nc3ccccc3[nH]2)cc(O)c1O [Example 16, 5-(1H-benzo[d]imidazol-2-yl)-3-methoxy-4-methylbenzene-1,2-diol] | > 100
15 | COc1cc(-c2nc3ccccc3[nH]2)c(C)c(O)c1O [Example 17, 4-(1H-benzo[d]imidazol-2-yl)-6-methoxy-3-methylbenzene-1,2-diol] | > 100
16 | CC(C)COc1cc(-c2nc3cccnc3n2CC(C)C)cc(O)c1O [Example 40, 3-isobutoxy-5-(3-isobutyl-3H-imidazo[4,5-b]pyridin-2-yl)benzene-1,2-diol] | > 100

More lines, now with the values ahead:

Row | IC50 [µM] | SMILES
17 | > 100 | COc1cc(-c2nc3cc(N4CCNCC4)ccc3[nH]2)cc(O)c1O [Example 18, 3-methoxy-5-(5-(piperazin-1-yl)-1H-benzo[d]imidazol-2-yl)benzene-1,2-diol]
18 | > 100 | COc1cc(-c2nc3cc(S(=O)(=O)Nc4ccccc4)ccc3[nH]2)cc(O)c1O [Example 19, 2-(3,4-dihydroxy-5-methoxyphenyl)-N-phenyl-1H-benzo[d]imidazole-5-sulfonamide]
19 | > 100 | CNS(=O)(=O)c1ccc2[nH]c(-c3cc(O)c(O)c(OC)c3)nc2c1 [Example 20, 2-(3,4-dihydroxy-5-methoxyphenyl)-N-methyl-1H-benzo[d]imidazole-5-sulfonamide]
20 | > 100 | COc1cc(-c2nc3c(C)cccc3[nH]2)cc(O)c1O [Example 21, 3-methoxy-5-(4-methyl-1H-benzo[d]imidazol-2-yl)benzene-1,2-diol]
21 | 1 to 10 | COc1cc(-c2nc3cc(N4CCN(C(=O)CCCC[C@@H]5SC[C@@H]6NC(=O)N[C@@H]65)CC4)ccc3[nH]2)cc(O)c1O [Example 23, (3aS,4S,6aR)-4-(5-(4-(2-(3,4-dihydroxy-5-methoxyphenyl)-1H-benzo[d]imidazol-5-yl)piperazin-1-yl)-5-oxopentyl)tetrahydro-1H-thieno[3,4-d]imidazol-2(3H)-one]
22 | > 100 | COc1cc(-c2nc3cc(N4CCN(C)CC4)ccc3[nH]2)cc(O)c1O [Example 24, 3-methoxy-5-(5-(4-methylpiperazin-1-yl)-1H-benzo[d]imidazol-2-yl)benzene-1,2-diol]
23 | > 100 | COc1cc(-c2nc3cc(N4CCOCC4)ccc3[nH]2)cc(O)c1O [Example 25, 3-methoxy-5-(5-morpholino-1H-benzo[d]imidazol-2-yl)benzene-1,2-diol]
24 | > 100 | COc1cc(-c2nc3cc(N4CCN(C(C)=O)CC4)ccc3[nH]2)cc(O)c1O [Example 26, 1-(4-(2-(3,4-dihydroxy-5-methoxyphenyl)-1H-benzo[d]imidazol-5-yl)piperazin-1-yl)ethanone]
25 | 10 to 100 | COc1cc(-c2nc3cc(N4CCN(C(C)=O)CC4)ccc3n2C(C)=O)cc(O)c1O [Example 27, 1-(4-(1-acetyl-2-(3,4-dihydroxy-5-methoxyphenyl)-1H-benzo[d]imidazol-5-yl)piperazin-1-yl)ethanone]
26 | 10 to 100 | COc1cc(-c2nc3cc(N4CCC4)ccc3n2C2CCOC2)cc(C(=O)O)c1O (stereo not shown) [Example 28, 5-(5-(azetidin-1-yl)-1-(tetrahydrofuran-3-yl)-1H-benzo[d]imidazol-2-yl)-2-hydroxy-3-methoxybenzoic acid]
27 | > 100 | CCn1c(-c2cc(O)c(O)c(OC(C)C)c2)nc2cccnc21 [Example 29, 5-(3-ethyl-3H-imidazo[4,5-b]pyridin-2-yl)-3-isopropoxybenzene-1,2-diol]
28 | 10 to 100 | COc1cc(-c2nc3cc(N4CCN(C(=O)c5ccccc5)CC4)ccc3[nH]2)c(C(F)(F)F)c(O)c1O [Example 30, (4-(2-(3,4-dihydroxy-5-methoxy-2-(trifluoromethyl)phenyl)-1H-benzo[d]imidazol-5-yl)piperazin-1-yl)(phenyl)methanone]
29 | 1 to 10 | COc1cc(-c2nc3cc(N4CCN(C(=O)c5ccccc5)CC4)ccc3[nH]2)cc(O)c1O [Example 31, (4-(2-(3,4-dihydroxy-5-methoxyphenyl)-1H-benzo[d]imidazol-5-yl)piperazin-1-yl)(phenyl)methanone]
30 | 10 to 100 | COc1cc(-c2nc3cc(N4CCN(C(=O)c5cccnc5)CC4)ccc3[nH]2)cc(O)c1O [Example 32, (4-(2-(3,4-dihydroxy-5-methoxyphenyl)-1H-benzo[d]imidazol-5-yl)piperazin-1-yl)(pyridin-3-yl)methanone]
31 | 10 to 100 | C=CCCC(=O)N1CCN(c2ccc3[nH]c(-c4cc(O)c(O)c(OC)c4)nc3c2)CC1 [Example 33, 1-(4-(2-(3,4-dihydroxy-5-methoxyphenyl)-1H-benzo[d]imidazol-5-yl)piperazin-1-yl)pent-4-en-1-one]
32 | 10 to 100 | C=CCCC(=O)N1CCN(c2ccc3c(c2)nc(-c2cc(O)c(O)c(OC)c2)n3C(=O)CCC=C)CC1 [Example 34, 1-(4-(2-(3,4-dihydroxy-5-methoxyphenyl)-1-(pent-4-enoyl)-1H-benzo[d]imidazol-5-yl)piperazin-1-yl)pent-4-en-1-one]
33 | > 100 | COc1cc(-c2nc3cc(N4CCN(C)CC4)ccc3n2C)cc(O)c1O [Example 35, 3-methoxy-5-(1-methyl-5-(4-methylpiperazin-1-yl)-1H-benzo[d]imidazol-2-yl)benzene-1,2-diol]
34 | > 100 | COc1cc(-c2nc3ncccc3n2C2COC2)cc(O)c1O [Example 36, 3-methoxy-5-(1-(oxetan-3-yl)-1H-imidazo[4,5-b]pyridin-2-yl)benzene-1,2-diol]
35 | > 100 | COc1cc(-c2nc3c(-c4ccccc4)ncnc3[nH]2)cc(O)c1O [Example 37, 3-methoxy-5-(6-phenyl-9H-purin-8-yl)benzene-1,2-diol]
36 | > 100 | COc1cc(-c2nc3ccc(N4CCN(C)CC4)cc3n2C)cc(O)c1O [Example 38, 3-methoxy-5-(1-methyl-6-(4-methylpiperazin-1-yl)-1H-benzo[d]imidazol-2-yl)benzene-1,2-diol]
37 | 10 to 100 | COc1cc(-c2nc3ccc(S(=O)(=O)Nc4ccccc4)cc3n2C2COC2)cc(O)c1O [Example 39, 2-(3,4-dihydroxy-5-methoxyphenyl)-1-(oxetan-3-yl)-N-phenyl-1H-benzo[d]imidazole-6-sulfonamide]
